PubChem BioAssay (NCI)
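Exposure lasted 48 hours, with cells grown in 96-well plates and compounds tested at five concentrations. TGI is the concentration that stops growth completely.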

Legend:
Test in all cases: NCI anticancer screen, dose series, 48 h
COLO 205 colon = system: COLO 205 colon
IGROV1 ovarian = system: IGROV1 ovarian
HT29 colon = system: HT29 colon
NCI-H522 lung = system: NCI-H522 lung
HCT-116 colon = system: HCT-116 colon
NCI-H460 lung = system: NCI-H460 lung
UACC-62 melanoma = system: UACC-62 melanoma
LXFL 529 NSCLC = system: LXFL 529 NSCLC
EKVX NSCLC = system: EKVX NSCLC
HCC-2998 colon = system: HCC-2998 colon
U251 CNS = system: U251 CNS
OVCAR-4 ovarian = system: OVCAR-4 ovarian
M14 melanoma = system: M14 melanoma
DLD-1 colon = system: DLD-1 colon
M19-MEL melanoma = system: M19-MEL melanoma
SF-268 CNS = system: SF-268 CNS
K-562 leukemia = system: K-562 leukemia
SN12C renal = system: SN12C renal
SNB-75 CNS = system: SNB-75 CNS
SK-OV-3 ovarian = system: SK-OV-3 ovarian
CAKI-1 renal = system: CAKI-1 renal
TK-10 renal = system: TK-10 renal
A549 NSCLC = system: A549 NSCLC
SF-295 CNS = system: SF-295 CNS
UO-31 renal = system: UO-31 renal
SF-539 CNS = system: SF-539 CNS
RPMI-8226 leukemia = system: RPMI-8226 leukemia
ACHN renal = system: ACHN renal
KM12 colon = system: KM12 colon
HCT-15 colon = system: HCT-15 colon
MOLT-4 leukemia = system: MOLT-4 leukemia
SW-620 colon = system: SW-620 colon
786-0 renal = system: 786-0 renal
SNB-19 CNS = system: SNB-19 CNS
SK-MEL-2 melanoma = system: SK-MEL-2 melanoma
HOP-62 NSCLC = system: HOP-62 NSCLC
RXF 393 renal = system: RXF 393 renal
OVCAR-8 ovarian = system: OVCAR-8 ovarian
DMS 114 small cell lung = system: DMS 114 small cell lung
UACC-257 melanoma = system: UACC-257 melanoma
NCI-H23 lung = system: NCI-H23 lung
LOX IMVI melanoma = system: LOX IMVI melanoma
HL-60(TB) leukemia = system: HL-60(TB) leukemia
MALME-3M melanoma = system: MALME-3M melanoma
OVCAR-3 ovarian = system: OVCAR-3 ovarian
SR leukemia = system: SR leukemia
SK-MEL-28 melanoma = system: SK-MEL-28 melanoma
DMS 273 small cell lung = system: DMS 273 small cell lung
XF 498 CNS = system: XF 498 CNS
CCRF-CEM leukemia = system: CCRF-CEM leukemia
SK-MEL-5 melanoma = system: SK-MEL-5 melanoma
HOP-18 NSCLC = system: HOP-18 NSCLC
OVCAR-5 ovarian = system: OVCAR-5 ovarian
HOP-92 NSCLC = system: HOP-92 NSCLC
A498 renal = system: A498 renal
KM20L2 colon = system: KM20L2 colon
NCI-H226 lung = system: NCI-H226 lung

Measured: TGI

O=S(=O)(C1=CC(S(=O)(=O)c2ccccc2)COC1)c1ccccc1 (stereo not given)
not listed: SK-MEL-5 melanoma | HOP-18 NSCLC | OVCAR-5 ovarian | HOP-92 NSCLC | A498 renal | KM20L2 colon | NCI-H226 lung
> 100 µM: all other assays above

O=C(Nc1ccccc1[N+](=O)[O-])/C(=N/Nc1cccc(Cl)c1)c1c(O)c2ccccc2oc1=O
2.67 µM: SR leukemia
53.8 µM: DMS 114 small cell lung
87.5 µM: CCRF-CEM leukemia
53.6 µM: HCT-116 colon
96.5 µM: HOP-92 NSCLC
47.6 µM: COLO 205 colon
not listed: U251 CNS | SN12C renal | RPMI-8226 leukemia | HOP-62 NSCLC | OVCAR-8 ovarian | HL-60(TB) leukemia | XF 498 CNS
> 100 µM: all other assays above
